From ChEMBL document CHEMBL2311418, “Structure-activity relationships of antitubercular salicylanilides consistent with disruption of the proton gradient via proton shuttling” (Bioorg Med Chem, 2013)
≈ marks a conversion by molar mass, not a printed value.

Tests used:
[1] = test system: Mycobacterium tuberculosis; assay: Antitubercular activity against Mycobacterium tuberculosis H37Rv ATCC27294 assessed as complete cessation of growth; assay type: functional; details: H37Rv ATCC 27294
[2] = Cytotoxicity against mouse macrophage cell line J774.1 (ATCC TIB-67) for 3 days by Alamar Blue; assay type: cell-based; details: 72 h

| SMILES | MIC [1] [µM] | IC50 [2] [µM] |
| --- | --- | --- |
| O=C(Nc1ccccc1)c1cc(Cl)ccc1O | 13 (≈ 3.22 µg/mL) | 22 |
| Cc1cc(NS(=O)(=O)c2ccc(NC(=O)c3cc(Cl)ccc3O)cc2)no1 | > 50 | > 60 |
| O=C(Nc1ccc(C(F)(F)F)cc1)c1cc(Cl)ccc1O | 1.6 (≈ 0.505 µg/mL) | 2.8 |
| Cc1cc(C)cc(NC(=O)c2cc(Cl)ccc2O)c1 | ≥ 50 | 21 |
| O=C(Nc1cccc(Br)c1)c1cc(Cl)ccc1O | 6.3 (≈ 2.06 µg/mL) | 5.7 |
| N#Cc1cccc(NC(=O)c2cc(Cl)ccc2O)c1 | 25 (≈ 6.82 µg/mL) | 10 |
| O=C(Nc1cccc(F)c1)c1cc(Cl)ccc1O | 6.3 (≈ 1.67 µg/mL) | 15 |
| O=C(Nc1cc(Cl)cc(Cl)c1)c1cc(Cl)ccc1O | 1.6 (≈ 0.507 µg/mL) | 3.1 |
| O=C(Nc1cc(F)cc(F)c1)c1cc(Cl)ccc1O | 3.1 (≈ 0.879 µg/mL) | 6.1 |
| O=C(O)c1cccc(NC(=O)c2cc(Cl)ccc2O)c1 | > 50 | > 60 |
| CCOC(=O)c1cccc(NC(=O)c2cc(Cl)ccc2O)c1 | 13 (≈ 4.16 µg/mL) | 17 |
| NC(=O)c1cccc(NC(=O)c2cc(Cl)ccc2O)c1 | > 50 | > 60 |
| O=C(Nc1ccccc1)c1cccc(NC(=O)c2cc(Cl)ccc2O)c1 | > 50 | > 60 |
| O=C(Nc1ccc(F)cc1)c1cc(Cl)ccc1O | 13 (≈ 3.45 µg/mL) | 17 |
| O=C(Nc1ccc(OC(F)(F)F)cc1)c1cc(Cl)ccc1O | 3.1 (≈ 1.03 µg/mL) | 7.3 |
| O=C(Nc1ccc(Oc2ccccc2)cc1)c1cc(Cl)ccc1O | 13 (≈ 4.42 µg/mL) | 43 |
| CC(C)(C)c1ccc(NC(=O)c2cc(Cl)ccc2O)cc1 | 13 (≈ 3.95 µg/mL) | 19 |
| COc1ccc(NC(=O)c2cc(Cl)ccc2O)cc1 | > 50 | > 60 |
| O=C(Nc1ccc(N2CCOCC2)cc1)c1cc(Cl)ccc1O | > 50 |  |
| NC(=O)c1ccc(NC(=O)c2cc(Cl)ccc2O)cc1 | > 50 | > 60 |
| O=C(Nc1ccccc1)c1ccc(NC(=O)c2cc(Cl)ccc2O)cc1 | > 50 | > 60 |
| O=C(Nc1ccc(S(=O)(=O)Nc2ccccc2)cc1)c1cc(Cl)ccc1O | > 50 | > 60 |
| Cc1c(NC(=O)c2cc(Cl)ccc2O)cccc1C(F)(F)F | 3.1 (≈ 1.02 µg/mL) | 8 |
| O=C(Nc1cccc(C(F)(F)F)c1F)c1cc(Cl)ccc1O | 3.1 (≈ 1.03 µg/mL) | 5.3 |

| SMILES | MIC [1] [µM] | IC50 [2] [µM] |
| --- | --- | --- |
| O=C(Nc1cccc(F)c1F)c1cc(Cl)ccc1O | 13 (≈ 3.69 µg/mL) | 13 |
| O=C(Nc1ccc(F)cc1C(F)(F)F)c1cc(Cl)ccc1O | 6.3 (≈ 2.1 µg/mL) | 13 |
| O=C(Nc1ccc(Br)cc1C(F)(F)F)c1cc(Cl)ccc1O | 6.3 (≈ 2.49 µg/mL) | 11 |
| O=C(Nc1ccc(C(F)(F)F)cc1Cl)c1cc(Cl)ccc1O | 0.8 (≈ 0.28 µg/mL) | 2.4 |
| O=C(Nc1ccc(F)cc1F)c1cc(Cl)ccc1O | 13 (≈ 3.69 µg/mL) | 8.5 |
| O=C(Nc1cc(C(F)(F)F)ccc1Cl)c1cc(Cl)ccc1O | 1.6 (≈ 0.56 µg/mL) | 3.5 |
| O=C(Nc1cc(C(F)(F)F)ccc1F)c1cc(Cl)ccc1O | 1.6 (≈ 0.534 µg/mL) | 2.6 |
| O=C(Nc1cc(C(F)(F)F)ccc1Br)c1cc(Cl)ccc1O | 0.8 (≈ 0.316 µg/mL) | 2.9 |
| COc1ccc(C(F)(F)F)c(NC(=O)c2cc(Cl)ccc2O)c1 | 6.3 (≈ 2.18 µg/mL) | 4.8 |
| O=C(Nc1cc(F)ccc1Cl)c1cc(Cl)ccc1O | 3.1 (≈ 0.93 µg/mL) | 3.2 |
| O=C(Nc1cc([N+](=O)[O-])ccc1F)c1cc(Cl)ccc1O | 6.3 (≈ 1.96 µg/mL) | 8.5 |
| O=C(Nc1c(Cl)cccc1C(F)(F)F)c1cc(Cl)ccc1O | > 50 | 23 |
| O=C(Nc1c(F)cccc1F)c1cc(Cl)ccc1O | > 50 | > 60 |
| O=C(Nc1ccc(F)c(C(F)(F)F)c1)c1cc(Cl)ccc1O | 1.6 (≈ 0.534 µg/mL) | 5.3 |
| O=C(Nc1ccc(Cl)c(C(F)(F)F)c1)c1cc(Cl)ccc1O | 1.6 (≈ 0.56 µg/mL) | 4.5 |
| O=C(Nc1ccc(Br)c(C(F)(F)F)c1)c1cc(Cl)ccc1O | 3.1 (≈ 1.22 µg/mL) | 4.5 |
| N#Cc1ccc(NC(=O)c2cc(Cl)ccc2O)cc1C(F)(F)F | 6.3 (≈ 2.15 µg/mL) | 5.8 |
| O=C(Nc1ccc(F)c(Cl)c1)c1cc(Cl)ccc1O | 3.1 (≈ 0.93 µg/mL) | 4.4 |
| O=C(Nc1ccc(F)c(F)c1)c1cc(Cl)ccc1O | 3.1 (≈ 0.879 µg/mL) | 7.7 |
| Cc1ccc(NC(=O)c2cc(Cl)ccc2O)cc1I | 6.3 (≈ 2.44 µg/mL) | 6.3 |
| O=C(Nc1cc(Br)ccc1C(F)(F)F)c1cc(Cl)ccc1O | 1.6 (≈ 0.631 µg/mL) | 5.8 |
| COc1cc(NC(=O)c2cc(Cl)ccc2O)cc(C(F)(F)F)c1 | 6.3 (≈ 2.18 µg/mL) | 18 |
| CC(C)(C)c1cc(NC(=O)c2cc(Cl)ccc2O)cc(C(C)(C)C)c1 | 6.3 (≈ 2.27 µg/mL) | 4.1 |
| Cc1c(C(F)(F)F)cc(NC(=O)c2cc(Cl)ccc2O)cc1C(F)(F)F | 0.8 (≈ 0.318 µg/mL) | < 1.9 |

| SMILES | MIC [1] [µM] | IC50 [2] [µM] |
| --- | --- | --- |
| Cc1c(NC(=O)c2cc(Cl)ccc2O)cc(C(F)(F)F)cc1C(F)(F)F | 3.1 (≈ 1.23 µg/mL) | 3.2 |
| O=C(Nc1cc(F)c(Br)c(F)c1)c1cc(Cl)ccc1O | 1.6 (≈ 0.58 µg/mL) | 4.3 |
| O=C(Nc1cc(F)c(F)c(F)c1)c1cc(Cl)ccc1O | 1.6 (≈ 0.483 µg/mL) | 4.7 |
| O=C(Nc1cc(Cl)c(Cl)c(Cl)c1)c1cc(Cl)ccc1O | 1.6 (≈ 0.562 µg/mL) | 5.4 |
| O=C(Nc1cc(F)c(F)cc1F)c1cc(Cl)ccc1O | 3.1 (≈ 0.935 µg/mL) | 6.2 |
| O=C(Nc1ccc(F)c(F)c1F)c1cc(Cl)ccc1O | 6.3 (≈ 1.9 µg/mL) | 6.7 |
| COc1cc(NC(=O)c2cc(Cl)ccc2O)c(Cl)cc1Cl | 13 (≈ 4.51 µg/mL) | 8 |
| O=C(Nc1cc(O)c(Cl)cc1Cl)c1cc(Cl)ccc1O | > 50 | 32 |
| O=C(Nc1cc(Br)cc(C(F)(F)F)c1)c1cc(F)ccc1O | 3.1 (≈ 1.17 µg/mL) | 4.7 |
| O=C(Nc1cc(C(F)(F)F)ccc1Cl)c1cc(F)ccc1O | 3.1 (≈ 1.03 µg/mL) | 6.1 |
| O=C(Nc1cc(F)cc(F)c1)c1cc(F)ccc1O | 6.3 (≈ 1.68 µg/mL) | 9.6 |
| O=C(Nc1ccc(C(F)(F)F)cc1)c1cc(F)ccc1O | 3.1 (≈ 0.928 µg/mL) | 5.4 |
| O=C(Nc1cc(C(F)(F)F)ccc1F)c1cc(F)ccc1O | 6.3 (≈ 2 µg/mL) | 5.1 |
| O=C(Nc1cccc(C(F)(F)F)c1)c1cc(F)ccc1O | 6.3 (≈ 1.89 µg/mL) | 6.1 |
| O=C(Nc1cc(C(F)(F)F)cc(C(F)(F)F)c1)c1cccc(Cl)c1 | > 50 | > 60 |
| O=C(Nc1cc(C(F)(F)F)cc(C(F)(F)F)c1)c1ccccc1 | > 50 |  |
| O=C(Nc1cc(C(F)(F)F)cc(C(F)(F)F)c1)c1cc(-n2cccc2)ccc1O | 3.1 (≈ 1.28 µg/mL) | 3.1 |
| Cc1ccc(O)c(C(=O)Nc2cc(C(F)(F)F)cc(C(F)(F)F)c2)c1 | 6.3 (≈ 2.29 µg/mL) | 5.4 |
| O=C(Nc1cc(C(F)(F)F)cc(C(F)(F)F)c1)c1cc(F)ccc1O | 3.1 (≈ 1.14 µg/mL) | 2.5 |
| O=C(Nc1cc(C(F)(F)F)cc(C(F)(F)F)c1)c1cc(Br)ccc1O | 6.3 (≈ 2.7 µg/mL) | 4.9 |
| O=C(Nc1cc(C(F)(F)F)cc(C(F)(F)F)c1)c1cc(I)ccc1O | 6.3 (≈ 2.99 µg/mL) | 5.6 |
| COc1ccc(O)c(C(=O)Nc2cc(C(F)(F)F)cc(C(F)(F)F)c2)c1 | 6.3 (≈ 2.39 µg/mL) | 7.7 |
| O=C(Nc1cc(C(F)(F)F)cc(C(F)(F)F)c1)c1cc(Cl)cc(Cl)c1O | 13 (≈ 5.44 µg/mL) | > 60 |
| O=C(Nc1cc(C(F)(F)F)cc(C(F)(F)F)c1)c1cccc(O)c1O | > 50 | 1.7 |

| SMILES | MIC [1] [µM] | IC50 [2] [µM] |
| --- | --- | --- |
| O=C(Nc1cc(C(F)(F)F)cc(C(F)(F)F)c1)c1cc([N+](=O)[O-])ccc1O | ≥ 50 | > 60 |
| CC(=O)Oc1ccc(Cl)cc1C(=O)Nc1cc(C(F)(F)F)cc(C(F)(F)F)c1 | 1.6 (≈ 0.681 µg/mL) | > 60 |
| COc1ccc(Cl)cc1C(=O)Nc1cc(C(F)(F)F)cc(C(F)(F)F)c1 | > 50 | > 60 |
| O=C(Nc1cc(C(F)(F)F)cc(C(F)(F)F)c1)c1cc(Cl)ccc1OCc1ccccc1 | > 50 | > 60 |
| Nc1ccc(Cl)cc1C(=O)Nc1cc(C(F)(F)F)cc(C(F)(F)F)c1 | > 50 | > 60 |
| O=C(Nc1cc(C(F)(F)F)cc(C(F)(F)F)c1)c1ccccc1Cl | > 50 | > 1.7 |
| Oc1ccc(Cl)cc1CNc1cc(C(F)(F)F)cc(C(F)(F)F)c1 | ≥ 50 | 7.8 |
| O=C(Nc1cc(C(F)(F)F)cc(C(F)(F)F)c1)Nc1cc(Cl)ccc1O | ≥ 50 | 13 |
| O=C(Oc1cc(C(F)(F)F)cc(C(F)(F)F)c1)c1cc(Cl)ccc1O | > 50 | > 60 |
| O=C(Nc1cc(Cl)ccc1O)c1cc(C(F)(F)F)cc(C(F)(F)F)c1 | > 50 | 12 |
| Oc1ccc(Cl)cc1C(=S)Nc1cc(C(F)(F)F)cc(C(F)(F)F)c1 | 1.6 (≈ 0.64 µg/mL) |  |
| O=S(=O)(Nc1cc(C(F)(F)F)cc(C(F)(F)F)c1)c1cc(Cl)ccc1O | ≥ 50 | 23 |
| O=C(NCc1cc(C(F)(F)F)cc(C(F)(F)F)c1)c1cc(Cl)ccc1O | 6.3 (≈ 2.51 µg/mL) | 27 |
| O=C(Nc1ccccc1C(F)(F)F)c1cc(Cl)ccc1O |  | 19 |
| O=C(Nc1ccc(C(F)(F)F)c(C(F)(F)F)c1)c1cc(Cl)ccc1O | 0.8 (≈ 0.307 µg/mL) | 4.9 |
| O=C(Nc1cccc(C(F)(F)F)c1C(F)(F)F)c1cc(Cl)ccc1O | 6.3 (≈ 2.42 µg/mL) | 8.1 |
| O=C(Nc1cc(C(F)(F)F)ccc1C(F)(F)F)c1cc(Cl)ccc1O | 3.1 (≈ 1.19 µg/mL) | 6.6 |
| O=C(Nc1ccccc1S(=O)(=O)c1ccccc1)c1cc(Cl)ccc1O | > 50 | > 60 |
| O=C(Nc1cc(C(F)(F)F)cc(C(F)(F)F)c1)c1ccccc1O | 6.3 (≈ 2.2 µg/mL) | 12 |
| N#Cc1ccc(NC(=O)c2cc(Cl)ccc2O)cc1 | 13 (≈ 3.54 µg/mL) | 11 |
| O=C(Nc1cccc(C(F)(F)F)c1)c1cc(Cl)ccc1O | 3.1 (≈ 0.979 µg/mL) | 5.9 |
| O=C(Nc1cc(C(F)(F)F)cc(C(F)(F)F)c1)c1cc(Cl)ccc1O [IMD-0354] | 3.1 (≈ 1.19 µg/mL) | 5.2 |
